Measured values from US20210002725A1, “METHODS FOR THE DIAGNOSIS OF METABOLIC DISORDERS USING EPIMETABOLIC SHIFTERS, MULTIDIMENSIONAL INTRACELLULAR MOLECULES, OR ENVIRONMENTAL INFLUENCES” (Berg LLC, priority 2009, published 2021).

What was measured:
[1] = test system: HASMC cells; experiment: SeaHorse XF analyzer OCR and ECAR; type: cell-based, human; settings: hyperglycemic cells in hypoxic conditions
Description: Environmental influencers (e.g., MIMs or Epi-shifters) may also be identified by changes in cellular energetics. One example of the measurement of cellular energetics are the real-time measures of the consumption of molecular oxygen and/or the change in pH of the media of a cell culture. For example, the ability of a potential epi-shifter to modulate the metabolic state of a cell may be analyzed using, for example, the XF24 Analyzer (Seahorse, Inc.). This technology allows for real time detection of oxygen and pH changes in a monolayer of cells in order to evaluate the bioenergetics of a cell microenvironment. The XF24 Analyzer measures and compares the rates of oxygen consumption (OCR), which is a measure of aerobic metabolism, and extracellular acidification (ECAR), which is a measure of glycolysis, both key indicators of cellular energetics.
(SeaHorse Biosciences Inc, North Billerica, Mass.).
In this experiment, the OCR and extracellular acidification rate (ECAR) in normal cells lines were obtained in the presence and absence of CoQ10 to determine baseline values. It was observed that in its native nutrient environment, the basal OCR rates in normal cells lines are different, and are usually a function of the physiological roles of the cells in the body. […]

[2] = test system: ATP Citrate Lyase (ACL); experiment: Western blot of ATP Citrate Lyase levels in cells treated with Coenzyme Q10; type: cell-based, human; settings: for ATP Citrate Lysase band Normalized Intensity: 48 h
Procedure: The whole cell pellets were resuspended one at a time in 1 mL of C7 buffer and transferred to labeled 15 mL tubes. The samples were then sonicated in the cold room on ice using 6 sonic pulses with the setting at #14. The samples were spun for a short time to 2500 g after sonication and the samples transferred to 2 ml tubes. The pH was verified of each sample (pH should be 9.0) using the foam remaining in the […] sample tubes.
After transfer each of the blots was placed in between 2 Whatman Filter papers and dried for 15-20 minutes. After drying the blots were labeled with the date, the type of samples and either blot 1 or blot 2 using a HB pencil. The molecular weight markers were outlined with the pencil and with single lines for the blue and a doublet for the colored markers. The blots were activated with methanol for 5 seconds, washed with water for 5 minutes, and TBST for 15 minutes. The blots were blocked for 1 hour with 5% blocking reagent in TBS-T at room temperature and then washed 3 times with TBS-T (1×-15′; 2×5′ each). Blot 1 was probed with the primary antibody for IDH1 (Cell Signaling #3997) in TBST with 5% BSA (at 1:1000 dilutions) and blot 2 with the rabbit polyclonal antibody for ATP Citrate Lyase in 5% BSA (Cell Signaling #4332) at 1:1000 dilution by incubation overnight at 4 deg C. with shaking. After the overnight incubation with primary antibodies, the blots were washed 3 times with TBS-T (1×-15′; 2×5′ each) and probed with the secondary antibody (antirabbit; 1:10,000 dilution) for 1 hon the orbital tilting shaker at room temperature. After 1 h of incubation with secondary antibodies, the blots were washed 3 times with TBS-T (1×-15′; 2×5′ each) and then incubated with ECF reagent for 5 mins and then each blot scanned with 5100 Fuji Laser scanner at 25 uM resolution, 16 bit, green laser, at 400V and at 500 V.
The samples were processed and run on a 4-12% Bis-Tris Novex NuPAGE gel as described above. The gels were run, transferred and stained essentially as described above.
The Isocitrate dehydrogenase blot was stripped by incubating for 30 minutes with methanol, followed by two 10 minute washes with TBS-T, then 30 minutes of incubation with stripping buffer at 50 deg C., and followed by two washes with 100 ml or more of TBS-T for 30′ each. The blot was scanned in laser scanner to check for complete stripping. The blot was activated with methanol for 5 seconds, washed with water for 5 minutes, and TBST for 15 minutes. The blot was blocked for 1 hour with 5% blocking reagent in TBS-T at room temperature and then washed 3 times with TBS-T (1×-15′; 2×5′ each). This was then probed with the rabbit polyclonal antibody for ATP Citrate Lyase in 5% BSA (Cell Signaling #4332) at 1:1000 dilution overnight at 4 deg C. with shaking. After the overnight incubation with primary antibody for ATP Citrate Lyase, the membrane was washed 3 times with TBS-T (1×-15′; 2×5′ each) and probed with the secondary antibody (antirabbit; 1:10,000 dilution) for 1 h on the orbital tilting shaker at room temperature. After 1 h of incubation with secondary antibodies, the blot was washed 3 times with TBS-T (1×-15′; 2×5′ each) and then incubated with ECF reagent for 5 minutes and then each blot scanned with 5100 Fuji Laser scanner at 25 uM resolution, 16 bit, green laser, at 400V and at 500 V.
In this experiment (western blot experiment 3), and in all of the experiments described below in this Example (i.e., western blot experiments 4 through 9), the cells were additionally treated with either 5 mM glucose (“5G”) or 22 mM glucose (“22G”). The samples derived from the cells were processed and run on a 4-12% Bis-Tris Novex NuPAGE gel as described above. The gels were run, transferred and stained essentially as described above.
The levels of IDH1, ATP citrate lyase and actin levels were determined by probing the blots with primary antibodies for IDH1, ATP citrate lyase and actin, essentially as described above.

COC1=C(OC)C(=O)C(C/C=C(\C)CC/C=C(\C)CC/C=C(\C)CC/C=C(\C)CC/C=C(\C)CC/C=C(\C)CC/C=C(\C)CC/C=C(\C)CC/C=C(\C)CCC=C(C)C)=C(C)C1=O [Q10, Coenzyme Q10]
ECAR rates [1]: downward trend
ATP Citrate Lysase band Normalized Intensity ([2]; HASMC (Table 34), 5 g, 50 μM): 23341
ATP Citrate Lysase band Normalized Intensity ([2]; HASMC (Table 34), 5 g, 100 μM): 25544
ATP Citrate Lysase band Normalized Intensity ([2]; HASMC (Table 34), 22 G, 50 μM): 21439
ATP Citrate Lysase band Normalized Intensity ([2]; HASMC (Table 34), 22 G, 100 μM): 19491
ATP Citrate Lysase band Normalized Intensity ([2]; HASMC (Table 35), 5 g, 50 μM): 12056
ATP Citrate Lysase band Normalized Intensity ([2]; HASMC (Table 35), 5 g, 100 μM): 15265
ATP Citrate Lysase band Normalized Intensity ([2]; HASMC (Table 35), 22 G, 50 μM): 15857
ATP Citrate Lysase band Normalized Intensity ([2]; HASMC (Table 35), 22 G, 100 μM): 13892
ATPCL Average Normalized Intensity ([2]; HDFa, 50 μM): ~7500
ATPCL Average Normalized Intensity ([2]; HDFa, 100 μM): ~25000
ATP Citrate Lysase band Normalized Intensity ([2]; HepG2, 5 g, 50 μM): 24106
ATP Citrate Lysase band Normalized Intensity ([2]; HepG2, 5 g, 100 μM): 22463
ATP Citrate Lysase band Normalized Intensity ([2]; HepG2, 22 G, 50 μM): 31235
ATP Citrate Lysase band Normalized Intensity ([2]; HepG2, 22 G, 100 μM): 50588
ATPCL Average Normalized Intensity ([2]; MCF-7, 50 μM): ~7500
ATP Citrate Lysase band Normalized Intensity ([2]; PACA2, 5 g, 50 μM): 8027
ATP Citrate Lysase band Normalized Intensity ([2]; PACA2, 5 g, 100 μM): 4942
ATP Citrate Lysase band Normalized Intensity ([2]; PACA2, 22 G, 50 μM): 9537
ATP Citrate Lysase band Normalized Intensity ([2]; PACA2, 22 G, 100 μM): 14901
